# Literature values as cited in patent US20020068688A1, “Cleaning compositions” (Unilever Home & Personal Care USA, Division of Conopco, Inc., priority 2000, published 2002).
# Conditions: grams of solid to form a saturated solution in 100 grams of water at 20° C.
compound,measurement,value
NC(N)=O [Urea],Water Solubility,>100 g/100 g
